Test results published in paper PMC10382042, “Brevetoxin versus Brevenal Modulation of Human Nav1 Channels” (Marine Drugs, 2023).

Columns and labels:
[1] = system: human Nav1.2, Nav1.4, Nav1.5, Nav1.7; assay: in vitro; format: cell-based; settings: human; all Nav subtypes, Ipeak and Ilate; read-out: pI/EC50, range over Nav currents
Method: (§1) Functional modulation of recombinant human voltage-gated sodium (Nav) channels exposed to marine PbTx-3 and brevenal was assessed by automated patch-clamp electrophysiology. Neuronal Nav1.2 (CNS) and Nav1.7 (PNS), in addition to muscle Nav1.4 (skeletal) and Nav1.5 (cardiac) sodium channels, were patch-clamped in mammalian cells. Whole-cell currents mediated by human Nav1.4 and Nav1.7 overexpressed in CHO-K1 cells, as well as human Nav1.2 and Nav1.5 overexpressed in HEK293 cells, were recorded at room temperature. Currents were elicited by 25 ms test pulses to −20 mV from a holding potential (Vh) of −120 mV, delivered for 5 min at 0.1 Hz, after each full-bath solution exchange to allow current amplitude and kinetics to reach a steady state.
(§2) Nav currents were evoked by a 25 ms test pulse to −20 mV (Vh = −120 mV; 0.1 Hz). Extracellular drug applications were performed by exchanging the whole bath with the test compounds diluted in extracellular solution to the required concentration during constant monitoring (25 ms, −20 mV, Vh −120 mV, 0.1 Hz). The control solution included 0.1% ethanol to account for non-specific vehicle effects. For concentration–response curves (CRCs), compounds at incrementally higher concentrations were applied to the extracellular bath solution and allowed to equilibrate for 5 min. The average current amplitude from the last five test pulses at each concentration was used for analysis.
(§3) APC data were analyzed using PatchMaster (Nanion) and Igor (WaveMetrics, Portland, OR, USA) software. Nav peak and late currents measured in the presence of increasing amounts of PbTx-3 and brevenal were divided by the current in control conditions (ICtr) to generate CRCs. […]

[2] = system: human Nav channels (Nav1.2, Nav1.4, Nav1.5, Nav1.7); assay: in vitro; format: cell-based
Method: as §1, §2, §3

| Compound | EC50 [1] [µM] | fold enhancement of late currents mediated by Nav1.2, Nav1.4, and Nav1.5 [2] | orders of magnitude more potent than brevenal at modulating Nav currents [2] |
| --- | --- | --- | --- |
| C=C/C=C\CC[C@H]1O[C@H]2CC[C@@]3(C)O[C@H]4[C@@H](O)C[C@@]5(C)O[C@@H](CC/C=C(C)/C(C)=C/C=O)[C@@H](C)C[C@H]5O[C@@H]4C[C@@H]3O[C@@H]2CC[C@@]1(C)O [Brevenal] | 0.01 to 10 | – | – |
| C=C(CO)C[C@@H]1C[C@H](O)[C@]2(C)OC3CC4OC5C[C@]6(C)O[C@]7(C)CCC8OC9C[C@]%10(C)OC%11C(C)=CC(=O)OC%11CC%10OC9C[C@@H](C)C8OC7CC6O[C@@]5(C)C/C=C\C4OC3CC2O1 (stereo partly drawn) [PbTx-3, Brevetoxin PbTx-3] | – | 2–4 fold | 1–3 orders of magnitude |
